Reference: ChEMBL document CHEMBL1201862, “PubChem BioAssay data set” (2004)
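Step 1: Grow cells in 96-well plates. Step 2: Expose to compound for 48 hours at 5 concentrations. Step 3: Interpolate endpoints linearly; if unreached, use highest concentration. Abbreviation: GI50, concentration required for 50% inhibition of growth.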 Activity calls are given as the source filed them. Rule as the data show it: active = GI50 up to about 1.1 µM and inactive = higher.

Tests used:
Assay in all cases: inhibition of tumour cell growth, NCI panel, 48 h
MOLT-4 = system: MOLT-4
HT-29 = system: HT-29
K562 = system: K562
HCT-15 = system: HCT-15
M14 = system: M14
786-0 = system: 786-0
NCI-H226 = system: NCI-H226
SNB-19 = system: SNB-19
RXF 393 = system: RXF 393
SK-OV-3 = system: SK-OV-3
HCT-116 = system: HCT-116
NCI-H460 = system: NCI-H460
U-251 = system: U-251
SK-MEL-28 = system: SK-MEL-28
SN12C = system: SN12C

Compound	GI50 (MOLT-4)	GI50 (HT-29)	GI50 (K562)	GI50 (HCT-15) [µM]	GI50 (M14)	GI50 (786-0)	GI50 (NCI-H226)	GI50 (SNB-19)	GI50 (RXF 393)	GI50 (SK-OV-3)	GI50 (HCT-116)	GI50 (NCI-H460)	GI50 (U-251)	GI50 (SK-MEL-28)	GI50 (SN12C)
O=C(Nc1cc(Cl)c(Cl)cc1Cl)C(=O)C1C(=O)NC(=S)NC1=O	> 100 µM (inactive)	> 100 µM (inactive)	> 100 µM (inactive)	> 100	> 100 µM (inactive)	> 100 µM (inactive)	> 100 µM (inactive)	> 100 µM (inactive)	> 100 µM (inactive)	> 100 µM (inactive)	> 100 µM (inactive)	> 100 µM (inactive)	> 100 µM (inactive)	> 100 µM (inactive)	> 100 µM (inactive)
CCNc1nc2c(=O)n(C)c(=O)n(C)c2s1	> 100 µM (inactive)	> 100 µM (inactive)	> 100 µM (inactive)	> 100	> 100 µM (inactive)	> 100 µM (inactive)	> 100 µM (inactive)	> 100 µM (inactive)	> 100 µM (inactive)	> 100 µM (inactive)	> 100 µM (inactive)	> 100 µM (inactive)	> 100 µM (inactive)	> 100 µM (inactive)	> 100 µM (inactive)
CSC(=S)NNC(=O)c1ccncc1	23.2 µM (inactive)	18.2 µM (inactive)	19.2 µM (inactive)	15	19 µM (inactive)	16.2 µM (inactive)	18.2 µM (inactive)	22.7 µM (inactive)	16.1 µM (inactive)	28.8 µM (inactive)	21 µM (inactive)	46.6 µM (inactive)	22.5 µM (inactive)	18.9 µM (inactive)	21.4 µM (inactive)
[N-]=[N+]=N/C1=C/CCCCC(=O)C1	> 100 µM (inactive)	> 100 µM (inactive)	> 100 µM (inactive)	> 100	> 100 µM (inactive)	> 100 µM (inactive)		> 100 µM (inactive)	> 100 µM (inactive)	> 100 µM (inactive)		> 100 µM (inactive)		> 100 µM (inactive)	> 100 µM (inactive)
COc1cc2c(c(OC)c1OC)-c1ccc(SC)c(=O)cc1[C@@H](NCc1ccccc1[N+](=O)[O-])CC2	0.0241 µM (active)	0.00391 µM (active)	0.00369 µM (active)	0.0113	0.00546 µM (active)	0.0246 µM (active)	0.0234 µM (active)	0.0246 µM (active)	0.00286 µM (active)	0.0041 µM (active)	0.00644 µM (active)	0.0168 µM (active)	0.0154 µM (active)	0.00444 µM (active)	0.0209 µM (active)
COc1cccc(NC(=O)C(=O)C2C=CCS2(=O)=O)c1 (stereo not drawn)	> 100 µM (inactive)	> 100 µM (inactive)	> 100 µM (inactive)	> 100	> 100 µM (inactive)	> 100 µM (inactive)	> 100 µM (inactive)	> 100 µM (inactive)	> 100 µM (inactive)	> 100 µM (inactive)	> 100 µM (inactive)	> 100 µM (inactive)	> 100 µM (inactive)	> 100 µM (inactive)	> 100 µM (inactive)
COc1cc(C(O)C(=O)c2nc3ccc([N+](=O)[O-])cc3nc2O)ccc1O (stereo not drawn)	> 100 µM (inactive)	> 100 µM (inactive)	57.1 µM (inactive)	> 100	> 100 µM (inactive)	> 100 µM (inactive)	> 100 µM (inactive)	> 100 µM (inactive)		> 100 µM (inactive)	> 100 µM (inactive)	> 100 µM (inactive)	> 100 µM (inactive)	26.4 µM (inactive)	> 100 µM (inactive)
Cc1ccc(C)c(NC(=O)/C(=N\NC(N)=S)C(C#N)c2ccccc2)c1 (stereo not drawn)	> 100 µM (inactive)	> 100 µM (inactive)	> 100 µM (inactive)	> 100	> 100 µM (inactive)	> 100 µM (inactive)	> 100 µM (inactive)	> 100 µM (inactive)		> 100 µM (inactive)	> 100 µM (inactive)	> 100 µM (inactive)	> 100 µM (inactive)	> 100 µM (inactive)	> 100 µM (inactive)
COc1cccc(NC(=O)C(C)(C)C)c1C=O	31 µM (inactive)	40.7 µM (inactive)	26.9 µM (inactive)	35.4	70.8 µM (inactive)	> 100 µM (inactive)	33.4 µM (inactive)	51.2 µM (inactive)		82.8 µM (inactive)	35.6 µM (inactive)	> 100 µM (inactive)	36.6 µM (inactive)	> 100 µM (inactive)	63.1 µM (inactive)
C#CCNC(=O)NCCCCC(NC(=O)OCc1ccccc1)C(=O)OCc1ccccc1 (stereo not drawn)	22.2 µM (inactive)	75.3 µM (inactive)	> 66.2 µM (inactive)	> 86.5	37.6 µM (inactive)	> 58.1 µM (inactive)	> 100 µM (inactive)	> 100 µM (inactive)	> 100 µM (inactive)	> 100 µM (inactive)	> 68.2 µM (inactive)	52.2 µM (inactive)	> 64.6 µM (inactive)	> 100 µM (inactive)	> 83.8 µM (inactive)
CC(=O)O[C@H]1C=CC23OC(=O)[C@]1(C)[C@H]2[C@H](C(=O)O)C12CC(=O)[C@@](CO)(CC[C@H]13)C2	> 100 µM (inactive)	> 100 µM (inactive)	> 100 µM (inactive)	> 100	> 100 µM (inactive)	> 100 µM (inactive)	> 100 µM (inactive)	> 100 µM (inactive)	> 100 µM (inactive)	> 100 µM (inactive)	> 100 µM (inactive)	> 100 µM (inactive)	> 100 µM (inactive)	> 100 µM (inactive)	> 100 µM (inactive)
O=C(CC1(O)C(=O)Nc2ccc([N+](=O)[O-])cc21)c1ccc(Br)cc1 (stereo not drawn)	35.8 µM (inactive)	> 100 µM (inactive)	54.6 µM (inactive)	> 100	> 100 µM (inactive)	61 µM (inactive)	85.1 µM (inactive)	44.3 µM (inactive)	28.6 µM (inactive)	25.1 µM (inactive)	37.2 µM (inactive)	> 100 µM (inactive)	22.3 µM (inactive)	> 100 µM (inactive)	> 100 µM (inactive)
COC(=O)/C=C(C)/C=C/c1c(C)c(C(C)=O)c(C)n1C	40.3 µM (inactive)	> 100 µM (inactive)	32.1 µM (inactive)	> 100	> 100 µM (inactive)	> 100 µM (inactive)	80.4 µM (inactive)	> 100 µM (inactive)		> 100 µM (inactive)	> 100 µM (inactive)		> 100 µM (inactive)		> 100 µM (inactive)
CC1CCC2(OC1)OC1CC3C4CCC5CC(O)CCC5(C)C4CC(=O)OC3(C)C1C2C (stereo not drawn)	> 100 µM (inactive)	> 100 µM (inactive)	> 100 µM (inactive)	> 100	> 100 µM (inactive)	> 100 µM (inactive)		> 100 µM (inactive)	> 100 µM (inactive)	> 100 µM (inactive)	> 100 µM (inactive)	> 100 µM (inactive)	> 100 µM (inactive)	> 100 µM (inactive)	> 100 µM (inactive)
CC1=CC(=O)N(c2c(C)cccc2Cl)C(C)N1 (stereo not drawn)	> 100 µM (inactive)	> 100 µM (inactive)	> 100 µM (inactive)	> 100	> 100 µM (inactive)	> 100 µM (inactive)	> 100 µM (inactive)	> 100 µM (inactive)	> 100 µM (inactive)	> 100 µM (inactive)	> 100 µM (inactive)	> 100 µM (inactive)	> 100 µM (inactive)	> 100 µM (inactive)	> 100 µM (inactive)
COC(OC)C(C)CC(=O)N(C)C (stereo not drawn)	> 100 µM (inactive)	> 100 µM (inactive)	> 100 µM (inactive)	> 100	> 100 µM (inactive)	> 100 µM (inactive)	> 100 µM (inactive)	> 100 µM (inactive)		> 100 µM (inactive)	> 100 µM (inactive)	> 100 µM (inactive)	> 100 µM (inactive)	> 100 µM (inactive)	> 100 µM (inactive)
O=[N+]([O-])c1cc(C(F)(F)F)cc([N+](=O)[O-])c1CCl	0.248 µM (active)	2.14 µM (inactive)	0.18 µM (active)	1.58	0.53 µM (active)	3.14 µM (inactive)	1.57 µM (inactive)	7.35 µM (inactive)	1.73 µM (inactive)	5.73 µM (inactive)	0.897 µM (active)	5.78 µM (inactive)	3.61 µM (inactive)	4.84 µM (inactive)	1.55 µM (inactive)
O=C(c1ccccc1)C(c1ccccc1)C1(O)C(=O)Nc2ccc([N+](=O)[O-])cc21 (stereo not drawn)	83.2 µM (inactive)		42.7 µM (inactive)	> 100	> 100 µM (inactive)	> 100 µM (inactive)	> 100 µM (inactive)	> 100 µM (inactive)	> 100 µM (inactive)	19.4 µM (inactive)	> 100 µM (inactive)	> 100 µM (inactive)	> 100 µM (inactive)	> 100 µM (inactive)	62.4 µM (inactive)
O=C(/C=C/c1ccc(OCCCOc2ccc(/C=C/C(=O)c3ccc(Cl)cc3)cc2)cc1)c1ccc(Cl)cc1	> 100 µM (inactive)	> 100 µM (inactive)	> 100 µM (inactive)	> 100	> 100 µM (inactive)	> 100 µM (inactive)	> 100 µM (inactive)	> 100 µM (inactive)	> 100 µM (inactive)	> 100 µM (inactive)	> 100 µM (inactive)	> 100 µM (inactive)	> 100 µM (inactive)	> 100 µM (inactive)	> 100 µM (inactive)
